Measurements from US20250019374A1, “PROTEIN TYROSINE PHOSPHATASE INHIBITORS AND METHODS OF USE THEREOF” (Calico Life Sciences LLC, priority 2021, published 2025).
Like-named read-outs stand apart in the source and are kept apart here. Blank lines part the entries; values can stand above or below the compound they belong to.

Columns and labels:
[1] = biological target: His tagged full-length PTPN1 protein (Homo sapiens (Human), UniProt P18031); test: PTPN1 Mobility Shift Assay (MSA); type: biochemical; details: enzyme 0.5 nM, substrate 2 μM
Protocol: Example III-2: Mobility Shift Assay (MSA) Used to Determine Potency of PTPN1 Inhibitors
Compound activity was determined using in house His tagged full-length PTPN1 protein (SEQ ID NO: 3) in an in vitro enzymatic reaction. The enzymatic assay used to determine activity is a mobility shift assay using a LabChip EZ Reader by Caliper Life Sciences. The enzymatic reaction was carried out in assay buffer (50 mM HEPES pH 7.5, 1 mM EGTA, 10 mM EDTA, 0.01% Tween® 20, and 2 mM DTT). The compounds were dispensed on a white 384 well ProxiPlate™ (PerkinElmer Cat ^#6008289) plate using a Labcyte Echo® liquid handler at varying concentrations (12 point, 1:3 dilution). The enzyme (at 0.5 nM) was incubated with compound for 10 minutes at room temperature. Thereafter, the substrate (phosphorylated insulin receptor probe sequence: ((OG488)-(NH—CH2—CH2—O—CH2—CH2—O—CH2—CO)-T-R-D-I—(PY)-E-T-D-Y—Y—R—K—K—NH2) (SEQ ID NO: 2) was added at 2 μM to the plates and incubated for another 10 minutes at room temperature. Finally, a quench solution (water and 4-bromo-3-(2-oxo-2-propoxyethoxy)-5-(3-{[1-(phenylmethanesulfonyl)piperidin-4-yl]amino}phenyl)thiophene-2-carboxylic acid) was added to the plates, which were then run on the EZ Reader (excitation 488 nm, emission 530 nm) to measure % conversion (the amount of phosphorylated substrate which was de-phosphorylated by PTPN1). […] The % inhibition was then used to calculate the IC50 values.

[2] = system: IFNγ-induced STAT1 phosphorylation (pSTAT1) in B16F10 cells; test: B16F10 Phospho-STAT1 HTRF proximal pharmacodynamic (PD) assay; type: cell-based, murine; details: for EC50: B16-F10, B16F10 cells; for Dihydrobenzofuran or Indoline x-fold>potency cellular: x-fold versus corresponding chromane comparator, B16F10 pSTAT1
Protocol: Example III-3: B16F10 (Murine Melanoma Cells) Phospho-STAT1 HTRF Proximal Pharmacodynamic (PD) Assay
B16F10 cells were grown and maintained in high glucose DMEM (Gibco, Catalog^#11965-092, Dun Laoghaire Co Dublin) supplemented with 10% fetal bovine serum (Gibco, Catalog^#10082-139, Dun Laoghaire Co Dublin). The cells were pelleted and resuspended in high glucose DMEM without phenol red (Gibco, Catalog^#11054-020, Dun Laoghaire Co Dublin), supplemented with 10% fetal bovine serum and plated in a 384 well Corning plate (product^#3765, Corning, NY) at 11,000 cells per well in a volume of 20 μL. The cells were dosed with the compounds of interest using an Echo Liquid Handler (Beckman Coulter, Brea, CA) at 50 μM top dose with 3-fold dilutions down to 0.002679 μM for a 10-point dose response. The plate was incubated for 3 hours at 37° C. and subsequently treated with recombinant mouse IFNγ (R&D Systems, Catalog^#485-MI, Minneapolis, MN; 100 nM final concentration) for 10 minutes at 37° C. to induce STAT1 phosphorylation followed by 3.3 μM staurosporine treatment for 1 hour at 37° C. to terminate phosphorylation. Media was then aspirated and 20 μL of 1× lysis buffer/blocking reagent (Cisbio Phospho-STAT1 kit, part^# 63ADK026PEH, Bedford, MA) was added. The plate was placed on a plate shaker for 30 minutes at room temperature, sealed, and stored at −80° C. until needed. To thaw, the plate was placed on shaker at room temperature until completely thawed while the antibody master mix was made (1:40 Phospho-STAT1 Eu Cryptate antibody, 1:40 Phospho-STAT d2 antibody, with the detection buffer; Cisbio Phospho-STAT1 kit, part^#63ADK026PEH, Bedford, MA). The antibody master mix was then dispensed at 4 μL per well into a 384 ProxiPlate Plus (PerkinElmer, part^#6008289, Waltham, MA) and 16 μL of lysate was added from the Corning plate to the Proxiplate using a VIAFLO 384 (INTEGRA). The plate was incubated for 3 hours at room temperature and read on an EnVision® (Perkin Elmer) plate reader with laser excitation at 335 nm and emission at 665 nm. Dotmatics Studies (Bishop's Stortford, UK) was utilized to generate all dose-response curves and calculate EC50s and are shown in Table 2.

[3] = biological target: His tagged PTPN2 (TC45) protein (Homo sapiens (Human), UniProt P17706); test: PTPN2 Mobility Shift Assay (MSA); type: biochemical; details: for Dihydrobenzofuran or Indoline x-fold>potency biochemical: x-fold versus corresponding chromane comparator, PTPN2 MSA
Protocol: Example III-1: Mobility Shift Assay (MSA) Used to Determine Potency of PTPN2 Inhibitors
Compound activity was determined using in house His tagged PTPN2 (TC45) protein (SEQ ID NO: 1) in an in vitro enzymatic reaction. The enzymatic assay used to determine activity was a mobility shift assay using a LabChip EZ Reader by Caliper Life Sciences. The enzymatic reaction was carried out in assay buffer (50 mM HEPES pH 7.5, 1 mM EGTA, 10 mM EDTA, 0.01% Tween® 20, and 2 mM DTT). The compounds were dispensed on a white 384 well ProxiPlate™ (PerkinElmer Catalog #6008289) plate using the Labcyte Echo at varying concentrations (12 point, 1:3 dilution). The enzyme (at 0.5 nM) was incubated with compound for 10 minutes at room temperature. Thereafter, the substrate (phosphorylated insulin receptor probe sequence: ((OG488)-(NH—CH2—CH2—O—CH2—CH2—O—CH2—CO)-T-R-D-I—(PY)-E-T-D-Y—Y—R—K—K—NH2) (SEQ ID NO: 2) was added at 2 μM to the plates and incubated for another 10 minutes at room temperature. Finally, a quench solution (water and 4-bromo-3-(2-oxo-2-propoxyethoxy)-5-(3-{[1-(phenylmethanesulfonyl)piperidin-4-yl]amino}phenyl)thiophene-2-carboxylic acid) was added to the plates, which were then run on the EZ Reader (excitation 488 nm, emission 530 nm) to measure % conversion (the amount of phosphorylated substrate which was de-phosphorylated by PTPN2). […] The % inhibition was then used to calculate the IC50 values.

[4] = 3 hours compound, 100 nM mouse IFNγ 10 minutes, read-out: B16F10 IFNγ Induced pSTAT1 EC50
[5] = Mus musculus, Table 3, dihydrobenzofuran or indoline compound (X = O or NH), read-out: pSTAT1 EC50
[6] = Table 3, dihydrobenzofuran or indoline compound (X = O or NH)

His tagged PTPN2 (TC45) protein, sequence (P17706 other isoform, or with tags, fused parts or gaps): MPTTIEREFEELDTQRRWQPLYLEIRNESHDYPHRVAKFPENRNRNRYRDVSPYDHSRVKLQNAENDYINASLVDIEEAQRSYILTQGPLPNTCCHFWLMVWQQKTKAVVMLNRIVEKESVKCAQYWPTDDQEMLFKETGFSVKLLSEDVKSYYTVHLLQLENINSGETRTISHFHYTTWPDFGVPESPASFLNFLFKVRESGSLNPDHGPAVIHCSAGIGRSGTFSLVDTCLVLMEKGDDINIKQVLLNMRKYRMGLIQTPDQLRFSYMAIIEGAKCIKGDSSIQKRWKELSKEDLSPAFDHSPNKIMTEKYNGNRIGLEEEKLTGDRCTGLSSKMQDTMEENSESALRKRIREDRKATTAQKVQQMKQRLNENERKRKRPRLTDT
His tagged full-length PTPN1 protein, sequence (P18031 whole entry): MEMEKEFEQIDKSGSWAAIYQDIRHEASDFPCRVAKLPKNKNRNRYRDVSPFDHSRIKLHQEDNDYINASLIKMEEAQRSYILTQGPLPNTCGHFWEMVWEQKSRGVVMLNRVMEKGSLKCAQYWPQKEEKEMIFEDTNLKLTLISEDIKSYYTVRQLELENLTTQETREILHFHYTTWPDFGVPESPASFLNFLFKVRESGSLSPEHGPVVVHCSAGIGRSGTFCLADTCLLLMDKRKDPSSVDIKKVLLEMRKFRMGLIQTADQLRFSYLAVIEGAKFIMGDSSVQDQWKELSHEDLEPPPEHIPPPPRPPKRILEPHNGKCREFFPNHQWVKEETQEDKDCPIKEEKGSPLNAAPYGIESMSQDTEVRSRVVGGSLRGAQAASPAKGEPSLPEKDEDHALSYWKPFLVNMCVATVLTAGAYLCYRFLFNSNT

SMILES: CC(C)CNC[C@H]1Cc2c(cc(O)c(N3CC(=O)NS3(=O)=O)c2F)O1 [Compound 100, 5-[(2R)-4-fluoro-6-hydroxy-2-{[(2-methylpropyl)amino]methyl}-2,3-dihydro-1-benzofuran-5-yl]-1λ^6,2,5-thiadiazolidine-1,1,3-trione]
IC50 [1]: 0.01 to 0.1 µM
EC50 [2, 4]: 0.853 µM
IC50 ([3]; enzyme 0.5 nM, substrate 2 μM): < 0.01 µM

SMILES: CC(C)CNC[C@@H]1Cc2c(cc(O)c(N3CC(=O)NS3(=O)=O)c2F)O1 [Compound 101, 5-[(2S)-4-fluoro-6-hydroxy-2-{[(2-methylpropyl)amino]methyl}-2,3-dihydro-1-benzofuran-5-yl]-1λ^6,2,5-thiadiazolidine-1,1,3-trione]
IC50 [1]: > 0.1 µM
IC50 ([3]; enzyme 0.5 nM, substrate 2 μM): > 0.1 µM

SMILES: CC(C)CNCC1Cc2c(cc(O)c(N3CC(=O)NS3(=O)=O)c2F)O1 (stereo not shown) [Compound 102, 5-(4-fluoro-6-hydroxy-2-{[(2-methylpropyl)amino]methyl}-2,3-dihydro-1-benzofuran-5-yl)-1λ^6,2,5-thiadiazolidine-1,1,3-trione]
IC50 [1]: 0.01 to 0.1 µM
EC50 [2, 4]: 3.42 µM
IC50 ([3]; enzyme 0.5 nM, substrate 2 μM): 0.01 to 0.1 µM

SMILES: O=C1CN(c2c(O)cc3c(c2F)C[C@H](CNCCC2CCCC2)O3)S(=O)(=O)N1 [Compound 103, 5-[(2R)-2-{[(2-cyclopentylethyl)amino]methyl}-4-fluoro-6-hydroxy-2,3-dihydro-1-benzofuran-5-yl]-1λ^6,2,5-thiadiazolidine-1,1,3-trione]
IC50 [1]: 0.01 to 0.1 µM
EC50 [2, 4]: 1.87 µM
IC50 ([3]; enzyme 0.5 nM, substrate 2 μM): < 0.01 µM

SMILES: CC(C)(CO)CCNC[C@H]1Cc2c(cc(O)c(N3CC(=O)NS3(=O)=O)c2F)O1 [Compound 104, 5-[(2R)-4-fluoro-6-hydroxy-2-{[(4-hydroxy-3,3-dimethylbutyl)amino]methyl}-2,3-dihydro-1-benzofuran-5-yl]-1λ^6,2,5-thiadiazolidine-1,1,3-trione]
IC50 [1]: 0.01 to 0.1 µM
EC50 [2, 4]: 5.11 µM
IC50 ([3]; enzyme 0.5 nM, substrate 2 μM): 0.01 to 0.1 µM

SMILES: CC(C)(O)CCNC[C@H]1Cc2c(cc(O)c(N3CC(=O)NS3(=O)=O)c2F)O1 [Compound 105, 5-[(2R)-4-fluoro-6-hydroxy-2-{[(3-hydroxy-3-methylbutyl)amino]methyl}-2,3-dihydro-1-benzofuran-5-yl]-1λ^6,2,5-thiadiazolidine-1,1,3-trione]
IC50 [1]: 0.01 to 0.1 µM
EC50 [2, 4]: 2.95 µM
IC50 ([3]; enzyme 0.5 nM, substrate 2 μM): 0.01 to 0.1 µM

SMILES: O=C1CN(c2c(O)cc3c(c2F)C[C@H](CNCCC2CC(F)(F)C2)O3)S(=O)(=O)N1 [Compound 106, 5-[(2R)-2-({[2-(3,3-difluorocyclobutyl)ethyl]amino}methyl)-4-fluoro-6-hydroxy-2,3-dihydro-1-benzofuran-5-yl]-1λ^6,2,5-thiadiazolidine-1,1,3-trione]
IC50 [1]: 0.01 to 0.1 µM
EC50 [2, 4]: 1.86 µM
IC50 ([3]; enzyme 0.5 nM, substrate 2 μM): < 0.01 µM

SMILES: O=C1CN(c2c(O)cc3c(c2F)C[C@H](CNCCCC(F)F)O3)S(=O)(=O)N1 [Compound 107, 5-[(2R)-2-{[(4,4-difluorobutyl)amino]methyl}-4-fluoro-6-hydroxy-2,3-dihydro-1-benzofuran-5-yl]-1λ^6,2,5-thiadiazolidine-1,1,3-trione]
IC50 [1]: 0.01 to 0.1 µM
EC50 [2, 4]: 1.33 µM
EC50 [2, 5]: 1.33 µM
Dihydrobenzofuran or Indoline x-fold>potency cellular [2]: 2.7
IC50 [3, 6]: 0.0133 µM
IC50 ([3]; enzyme 0.5 nM, substrate 2 μM): 0.01 to 0.1 µM
Dihydrobenzofuran or Indoline x-fold>potency biochemical [3]: 0.7

SMILES: O=C1CN(c2c(O)cc3c(c2F)C[C@H](CNCCCOCC(F)F)O3)S(=O)(=O)N1 [Compound 123, 5-[(2R)-2-({[3-(2,2-difluoroethoxy)propyl]amino}methyl)-4-fluoro-6-hydroxy-2,3-dihydro-1-benzofuran-5-yl]-1λ^6,2,5-thiadiazolidine-1,1,3-trione]
IC50 [1]: 0.01 to 0.1 µM
IC50 [3, 6]: 0.0112 µM
IC50 ([3]; enzyme 0.5 nM, substrate 2 μM): 0.01 to 0.1 µM
Dihydrobenzofuran or Indoline x-fold>potency biochemical [3]: 2.1

Now from value to compound, other results behind:

IC50 [1]: 0.01 to 0.1 µM
EC50 [2, 4]: 3.67 µM
EC50 [2, 5]: 3.67 µM
SMILES: O=C1CN(c2c(O)cc3c(c2F)C[C@H](CNCC2C4CCCC42)O3)S(=O)(=O)N1 (mixture of isomers) [Compound 126, 5-{(2R)-2-[({[(1RS,5SR)-bicyclo[3.1.0]hexan-6-yl]methyl}amino)methyl]-4-fluoro-6-hydroxy-2,3-dihydro-1-benzofuran-5-yl}-1λ^6,2,5-thiadiazolidine-1,1,3-trione]
Dihydrobenzofuran or Indoline x-fold>potency cellular [2]: >13.6
IC50 [3, 6]: 0.00606 µM
IC50 ([3]; enzyme 0.5 nM, substrate 2 μM): < 0.01 µM
Dihydrobenzofuran or Indoline x-fold>potency biochemical [3]: 5.3

IC50 [1]: 0.01 to 0.1 µM
SMILES: CC(C)(C)OC(=O)N1CCC(CNC[C@H]2Cc3c(cc(O)c(N4CC(=O)NS4(=O)=O)c3F)O2)CC1 [Compound 124, tert-butyl 4-[({[(2R)-4-fluoro-6-hydroxy-5-(1,1,4-trioxo-1λ^6,2,5-thiadiazolidin-2-yl)-2,3-dihydro-1-benzofuran-2-yl]methyl}amino)methyl]piperidine-1-carboxylate]
IC50 [3, 6]: 0.0132 µM
IC50 ([3]; enzyme 0.5 nM, substrate 2 μM): 0.01 to 0.1 µM
Dihydrobenzofuran or Indoline x-fold>potency biochemical [3]: 1.1

IC50 [1]: > 0.1 µM
SMILES: CC(C)CNC[C@H]1Cc2c(cc(O)c(N3CC(=O)NS3(=O)=O)c2F)N1C [Compound 156, 5-[(2R)-4-fluoro-6-hydroxy-1-methyl-2-{[(2-methylpropyl)amino]methyl}-2,3-dihydro-1H-indol-5-yl]-1λ^6,2,5-thiadiazolidine-1,1,3-trione]
IC50 ([3]; enzyme 0.5 nM, substrate 2 μM): > 0.1 µM

IC50 [1]: > 0.1 µM
SMILES: O=C1CN(c2c(O)cc3c(c2F)C[C@H](CNCC(O)C(F)F)N3)S(=O)(=O)N1 (stereo partly drawn) [Compound 157, 5-[(2R)-2-{[(3,3-difluoro-2-hydroxypropyl)amino]methyl}-4-fluoro-6-hydroxy-2,3-dihydro-1H-indol-5-yl]-1λ^6,2,5-thiadiazolidine-1,1,3-trione]
IC50 ([3]; enzyme 0.5 nM, substrate 2 μM): > 0.1 µM
